Assay results from patent US8188098B2, “GPR119 receptor agonists” (Hoffmann-La Roche Inc., priority 2008, dated 2012).

Target: T1, GPR119 receptor (Mesocricetus auratus, UniProt A0A1U8CD06)
T1 construct: which endogenously express the GPR119 receptor; host or cells: HIT-T15 hamster pancreatic islet cells
T1 sequence (A0A1U8CD06 1-334): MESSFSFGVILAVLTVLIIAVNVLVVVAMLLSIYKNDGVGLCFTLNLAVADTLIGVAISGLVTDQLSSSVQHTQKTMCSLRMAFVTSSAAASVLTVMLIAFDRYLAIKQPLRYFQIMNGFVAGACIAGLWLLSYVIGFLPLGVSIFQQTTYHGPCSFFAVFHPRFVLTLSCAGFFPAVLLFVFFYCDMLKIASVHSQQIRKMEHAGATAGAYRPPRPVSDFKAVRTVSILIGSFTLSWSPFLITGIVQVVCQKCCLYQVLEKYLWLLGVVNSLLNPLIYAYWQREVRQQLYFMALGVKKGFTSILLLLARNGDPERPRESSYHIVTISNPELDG
Test: cAMP assay in HIT-T15 hamster pancreatic islet cells (functional agonist activity)
Assay type: cell-based
Details: HIT-T15 cells endogenously expressing GPR119; 30 min at 25° C.; intracellular cAMP
Summary of the method: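 HIT-T15 cells (endogenous GPR119), 9000/well, exposed to agonist 30 min at 25° C with 0.5 mM IBMX and 0.5 mg/ml BSA. Lysate cAMP measured by chemiluminescent competitive immunoassay; EC50 from curve fit.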

First: CC(C)(C)OC(=O)N1CCCC(n2ncc3c(Oc4ccc(S(C)(=O)=O)cc4)ncnc32)C1 (single isomer, unassigned) [Example 88]
Second: CC(C)(C)C(=O)N1CCC(n2ncc3c(Oc4ccc(S(C)(=O)=O)cc4)ncnc32)CC1 [Example 138, 1-{4-[4-(4-Methanesulfonyl-phenoxy)-pyrazolo[3,4-d]pyrimidin-1-yl]-piperidin-1-yl}-2,2-dimethyl-propan-1-one]
The EC50 of the first is 17-fold lower: 0.045 µM for the first, 0.78 µM for the second.

Going from `Cc1nc(-n2cncn2)ccc1Nc1ncnc2c1cnn2C1CCN(C(=O)OC(C)(C)C)CC1` [Example 9, 4-[4-(2-Methyl-6-[1,2,4]triazol-1-yl-pyridin-3-ylamino)-pyrazolo[3,4-d]pyrimidin-1-yl]-piperidine-1-carboxylic acid tert-butyl ester] to `Cc1nc(-n2cncn2)ccc1Oc1ncnc2c1cnn2C1CCN(C(=O)OC(C)(C)C)CC1` [Example 101, 4-[4-(2-Methyl-6-[1,2,4]triazol-1-yl-pyridin-3-yloxy)-pyrazolo[3,4-d]pyrimidin-1-yl]-piperidine-1-carboxylic acid tert-butyl ester], the EC50 falls from 2.4 µM to 0.36 µM (6.7-fold). The second is the more potent here.

First: CC(C)c1noc([C@H]2CC[C@H](n3ncc4c(Oc5ccc(S(C)(=O)=O)cc5F)ncnc43)CC2)n1 [Example 132, 4-(2-Fluoro-4-methanesulfonyl-phenoxy)-1-[4-(3-isopropyl-[1,2,4]oxadiazol-5-yl)-trans-cyclohexyl]-1H-pyrazolo[3,4-d]pyrimidine]
Second: Cc1ncccc1Oc1ncnc2c1cnn2C1CCN(c2nc(C(C)C)no2)CC1 [Example 129, 1-[1-(3-Isopropyl-[1,2,4]oxadiazol-5-yl)-piperidin-4-yl]-4-(2-methyl-pyridin-3-yloxy)-1H-pyrazolo[3,4-d]pyrimidine]
The EC50 of the first is 6.6-fold lower: 0.35 µM for the first, 2.3 µM for the second. The first is the more potent here.

First: Cc1ncccc1Oc1ncnc2c1cnn2C1CCN(C(=O)OC(C)C)CC1 [Example 27, 4-[4-(2-Methyl-pyridin-3-yloxy)-pyrazolo[3,4-d]pyrimidin-1-yl]-piperidine-1-carboxylic acid isopropyl ester]
Second: Cc1ncccc1Oc1ncnc2c1cnn2C1CCN(C(=O)OC(C)(C)C)CC1 [Example 92, 4-[4-(2-Methyl-pyridin-3-yloxy)-pyrazolo[3,4-d]pyrimidin-1-yl]-piperidine-1-carboxylic acid tert-butyl ester]
The EC50 of the first is 5-fold higher: 0.85 µM for the first, 0.17 µM for the second.

`CC(=O)Nc1ccc(Oc2ncnc3c2cnn3C2CCN(C(=O)OC(C)(C)C)CC2)cc1` [Example 70, 4-[4-(4-Acetylamino-phenoxy)-pyrazolo[3,4-d]pyrimidin-1-yl]-piperidine-1-carboxylic acid tert-butyl ester] and `CC(=O)c1ccc(Oc2ncnc3c2cnn3C2CCN(C(=O)OC(C)(C)C)CC2)cc1` [Example 64, 4-[4-(4-Acetyl-phenoxy)-pyrazolo[3,4-d]pyrimidin-1-yl]-piperidine-1-carboxylic acid tert-butyl ester] are within 1.5-fold of each other in EC50: 0.14 µM for the first, 0.15 µM for the second.

Going from `CC(C)COC(=O)N1CCC(n2ncc3c(Oc4ccc(S(C)(=O)=O)cc4)ncnc32)CC1` [Example 106, 4-[4-(4-Methanesulfonyl-phenoxy)-pyrazolo[3,4-d]pyrimidin-1-yl]-piperidine-1-carboxylic acid isobutyl ester] to `CC(C)(C)CC(=O)N1CCC(n2ncc3c(Oc4ccc(S(C)(=O)=O)cc4)ncnc32)CC1` [Example 144, 1-{4-[4-(4-Methanesulfonyl-phenoxy)-pyrazolo[3,4-d]pyrimidin-1-yl]-piperidin-1-yl}-3,3-dimethyl-butan-1-one], the EC50 rises from 0.11 µM to 0.27 µM (2.5-fold).

First: Cc1nn(C2CCN(C(=O)OC(C)C)CC2)c2ncnc(Oc3ccc(S(C)(=O)=O)cc3)c12 [Example 22, 4-[4-(4-Methanesulfonyl-phenoxy)-3-methyl-pyrazolo[3,4-d]pyrimidin-1-yl]-piperidine-1-carboxylic acid isopropyl ester]
Second: Cc1nn(C2CCN(C(=O)OC(C)C)CC2)c2ncnc(Oc3cc(F)c(F)cc3F)c12 [Example 17, 4-[3-Methyl-4-(2,4,5-trifluoro-phenoxy)-pyrazolo[3,4-d]pyrimidin-1-yl]-piperidine-1-carboxylic acid isopropyl ester]
The EC50 of the first is 3.3-fold lower: 0.21 µM for the first, 0.7 µM for the second. The first is the more potent here.

`CC(C)(C)OC(=O)N1CCCC(n2ncc3c(Oc4ccccc4C#N)ncnc32)C1` (centres unmarked) [Example 90, 3-[4-(2-Cyano-phenoxy)-pyrazolo[3,4-d]pyrimidin-1-yl]-piperidine-1-carboxylic acid tert-butyl ester] and `CC(C)(C)OC(=O)N1CCC(n2ncc3c(Oc4ccc(Cl)cc4C#N)ncnc32)CC1` [Example 51, 4-[4-(4-Chloro-2-cyano-phenoxy)-pyrazolo[3,4-d]pyrimidin-1-yl]-piperidine-1-carboxylic acid tert-butyl ester] are within 1.5-fold of each other in EC50: 0.12 µM for the first, 0.11 µM for the second.

First: CS(=O)(=O)c1ccc(Oc2ncnc3c2cnn3C2CCN(Cc3ccccc3)CC2)cc1 [Example 157, 1-(1-Benzyl-piperidin-4-yl)-4-(4-methanesulfonyl-phenoxy)-1H-pyrazolo[3,4-d]pyrimidine]
Second: CS(=O)(=O)c1ccc(Oc2ncnc3c2cnn3C2CCN(Cc3cccc(C#N)c3)CC2)cc1 [Example 168, 3-{4-[4-(4-Methanesulfonyl-phenoxy)-pyrazolo[3,4-d]pyrimidin-1-yl]-piperidin-1-ylmethyl}-benzonitrile]
The EC50 of the first is 2.6-fold lower: 0.58 µM for the first, 1.5 µM for the second. The first is the more potent here.

First: COc1ccc(Oc2ncnc3c2cnn3C2CCN(C(=O)OC(C)(C)C)CC2)cc1 [Example 39, 4-[4-(4-Methoxy-phenoxy)-pyrazolo[3,4-d]pyrimidin-1-yl]-piperidine-1-carboxylic acid tert-butyl ester]
Second: CC(C)(C)OC(=O)N1CCC(n2ncc3c(Oc4ccc(OC(F)(F)F)cc4)ncnc32)CC1 [Example 42, 4-[4-(4-Trifluoromethoxy-phenoxy)-pyrazolo[3,4-d]pyrimidin-1-yl]-piperidine-1-carboxylic acid tert-butyl ester]
The EC50 of the first is 2.5-fold lower: 0.72 µM for the first, 1.8 µM for the second.

Compared with `Cc1ncccc1Oc1ncnc2c1cnn2C1CCN(C(=O)OC2CCCC2)CC1` [Example 121, 4-[4-(2-Methyl-pyridin-3-yloxy)-pyrazolo[3,4-d]pyrimidin-1-yl]-piperidine-1-carboxylic acid cyclopentyl ester], `N#Cc1ccc(F)c(F)c1Oc1ncnc2c1cnn2C1CCN(C(=O)OC2CCCC2)CC1` [Example 119, 4-[4-(6-Cyano-2,3-difluoro-phenoxy)-pyrazolo[3,4-d]pyrimidin-1-yl]-piperidine-1-carboxylic acid cyclopentyl ester] is 4.1-fold lower in EC50: 0.26 µM for the first, 0.063 µM for the second. The second is the more potent here.

Going from `CN(C)S(=O)(=O)c1ccc(Oc2ncnc3c2cnn3C2CCN(C(=O)OC(C)(C)C)CC2)cc1` [Example 57, 4-[4-(4-Dimethylsulfamoyl-phenoxy)-pyrazolo[3,4-d]pyrimidin-1-yl]-piperidine-1-carboxylic acid tert-butyl ester] to `CC(C)(OC(=O)N1CCC(n2ncc3c(Oc4ccc(S(C)(=O)=O)cc4)ncnc32)CC1)C(Cl)(Cl)Cl` [Example 114, 4-[4-(4-Methanesulfonyl-phenoxy)-pyrazolo[3,4-d]pyrimidin-1-yl]-piperidine-1-carboxylic acid 2,2,2-trichloro-1,1-dimethyl-ethyl ester], the EC50 falls from 0.3 µM to 0.044 µM (6.8-fold). The second is the more potent here.

First: CS(=O)(=O)c1ccc(Oc2ncnc3c2cnn3C2CCN(Cc3ccc4c(c3)OC(F)(F)O4)CC2)cc1 [Example 163, 1-[1-(2,2-Difluoro-benzo[1,3]dioxol-5-ylmethyl)-piperidin-4-yl]-4-(4-methanesulfonyl-phenoxy)-1H-pyrazolo[3,4-d]pyrimidine]
Second: CS(=O)(=O)c1ccc(Oc2ncnc3c2cnn3C2CCN(Cc3ccc(C(F)(F)F)cc3)CC2)cc1 [Example 161, 4-(4-Methanesulfonyl-phenoxy)-1-[1-(4-trifluoromethyl-benzyl)-piperidin-4-yl]-1H-pyrazolo[3,4-d]pyrimidine]
The EC50 of the first is 3.9-fold higher: 0.14 µM for the first, 0.036 µM for the second. The second is the more potent here.

Going from `Cc1cc(=O)oc2cc(Oc3ncnc4c3cnn4C3CCN(C(=O)OC(C)(C)C)CC3)ccc12` [Example 76, 4-[4-(4-Methyl-2-oxo-2H-chromen-7-yloxy)-pyrazolo[3,4-d]pyrimidin-1-yl]-piperidine-1-carboxylic acid tert-butyl ester] to `CC(=O)c1ccc(Oc2ncnc3c2cnn3C2CCN(C(=O)OC(C)(C)C)CC2)cc1C` [Example 65, 4-[4-(4-Acetyl-3-methyl-phenoxy)-pyrazolo[3,4-d]pyrimidin-1-yl]-piperidine-1-carboxylic acid tert-butyl ester], the EC50 falls from 3 µM to 0.31 µM (9.7-fold). The second is the more potent here.

Going from `Cc1nnnn1-c1ccc(Oc2ncnc3c2cnn3C2CCN(C(=O)OC(C)(C)C)CC2)cc1` [Example 84, 4-{4-[4-(5-Methyl-tetrazol-1-yl)-phenoxy]-pyrazolo[3,4-d]pyrimidin-1-yl}-piperidine-1-carboxylic acid tert-butyl ester] to `CC(=O)Nc1cccc(Oc2ncnc3c2cnn3C2CCN(C(=O)OC(C)(C)C)CC2)c1` [Example 69, 4-[4-(3-Acetylamino-phenoxy)-pyrazolo[3,4-d]pyrimidin-1-yl]-piperidine-1-carboxylic acid tert-butyl ester], the EC50 rises from 0.24 µM to 0.6 µM (2.5-fold). The first is the more potent here.

First: CC(C)(C)OC(=O)N1CCC(n2ncc3c(Nc4cc(F)c(F)cc4F)ncnc32)CC1 [Example 4, 4-[4-(2,4,5-Trifluoro-phenylamino)-pyrazolo[3,4-d]pyrimidin-1-yl]-piperidine-1-carboxylic acid tert-butyl ester]
Second: CS(=O)(=O)c1ccc(Oc2ncnc3c2cnn3C2CCN(C(=O)CCc3ccccc3)CC2)cc1 [Example 146, 1-{4-[4-(4-Methanesulfonyl-phenoxy)-pyrazolo[3,4-d]pyrimidin-1-yl]-piperidin-1-yl}-3-phenyl-propan-1-one]
The EC50 of the first is 1.9-fold lower: 0.53 µM for the first, 1 µM for the second. The first is the more potent here.
